Assay results reported in patent US20250092056A1, “URACIL DERIVATIVES HAVING VIRUS REPLICATION INHIBITORY ACTIVITY AND PHARMACEUTICAL COMPOSITION COMPRISING THE SAME” (Shionogi & Co., Ltd., priority 2022, published 2025).
Where “and” joins values, the source holds several entries; their conditions need not be identical. Identical values can stand only once.

test system: SARS-CoV-2; assay: Cytopathic effect (CPE) suppression effect confirmation test using HEK293T/ACE2-TMPRSS2 cells; format: cell-based; conditions: Severe acute respiratory syndrome coronavirus 2, HEK-293T, 72 h; HEK293T/ACE2-TMPRSS2 cells, CPE suppression, CellTiter-Glo 2.0 after 3 days culture; read-out: EC50 (50% SARS-CoV-2 infected cell death inhibitory concentration), class

| SMILES | EC50 [µM] |
| --- | --- |
| Cc1cncc(-n2c(=O)c(-c3ccc(F)c(Cl)c3)c(N3CCC(C(F)F)CC3)n(CC#N)c2=O)n1 [Compound I-194] | < 0.1 |
| Cc1cncc(-n2c(=O)c(Cc3cc(F)c(F)c(F)c3)c(N3C[C@@H]4[C@H](C3)C4(F)F)n(CC#N)c2=O)c1 [Compound I-099] | < 0.1 |
| Cc1cncc(-n2c(=O)c(-c3ccc(F)c(Cl)c3)c(N3CC4(CCOCC4)C3)n(CC#N)c2=O)n1 [Compound I-193] | < 0.1 |

same assay, conditions: Severe acute respiratory syndrome coronavirus 2, HEK-293T; 50% SARS-CoV-2 infected cell death inhibitory concentration; HEK293T/ACE2-TMPRSS2 cells; read-out: EC50

| SMILES | EC50 [µM] |
| --- | --- |
| Cc1cncc(-n2c(=O)c(-c3ccc(F)c(Cl)c3)c(-c3ccc(C4CC4)nc3)n(CC#N)c2=O)c1 [Compound I-269] | < 0.1 |

target: Recombinant SARS-CoV-2 3CL Protease (Severe acute respiratory syndrome coronavirus 2 (2019-nCoV) (SARS-CoV-2), UniProt P0DTD1); assay: biochemical; format: biochemical; conditions: 50% SARS-CoV-2 3CL protease inhibitory concentration; read-out: IC50

| SMILES | IC50 |
| --- | --- |
| N#CCn1c(N2CC3(CCOC3)C2)c(Cc2cc(F)c(F)c(F)c2)c(=O)n(CCC(N)=O)c1=O [Compound I-001] | > 0.1 µM |
| N#CCn1c(N2Cc3ccccc3C2)c(Cc2cc(F)c(F)c(F)c2)c(=O)n(-c2cncc(=O)[nH]2)c1=O [Compound I-158] | 0.01 to 0.1 µM |
| Cc1cc(-n2c(=O)c(Cc3cc(F)c(F)c(F)c3)c(N3CC4(CCOC4)C3)n(CC#N)c2=O)cc(=O)[nH]1 [Compound I-123] | > 0.1 µM |
| CC1(c2ccc(F)c(Cl)c2)CN(CC#N)C(=O)N(c2cncc(Cl)c2)C1=O (racemic) [Compound I-283] | < 0.01 µM and > 0.1 µM |
| Cc1cncc(-n2c(=O)c(Cc3cc(F)c(F)c(F)c3)c(Cl)n(CC#N)c2=O)c1 [Compound I-013] | 0.01 to 0.1 µM |
| N#CCn1c(N2CC3(CCOC3)C2)c(-c2ccc(F)c(Cl)c2)c(=O)n(-c2cc(C(F)(F)F)[nH]c(=O)c2)c1=O [Compound I-186] | 0.01 to 0.1 µM |
| N#CCn1c(N2CC3(CCOC3)C2)c(C2CCCCC2)c(=O)n(-c2cncc(Cl)c2)c1=O [Compound I-285] | > 0.1 µM |
| N#CCn1c(N2CCCCC2)c(-c2ccc(F)c(Cl)c2)c(=O)n(-c2cncc(Cl)c2)c1=O [Compound I-254] | < 0.01 µM |
| Cn1cnc(Cn2c(=O)c(Cc3cc(F)c(F)c(F)c3)c(N3Cc4cn[nH]c4C3)n(CC#N)c2=O)n1 [Compound I-002] | > 0.1 µM |
| Cc1cncc(-n2c(=O)c(-c3ccc(F)c(Cl)c3)c(-c3ccc(C(=O)O)cc3)n(CC#N)c2=O)c1 [Compound I-024] | > 0.1 µM |
| Cc1cncc(-n2c(=O)c(Cc3cc(F)c(F)c(F)c3)c(OC(C(F)(F)F)C(F)(F)F)n(CC#N)c2=O)c1 [Compound I-004] | > 0.1 µM |
| CC1(C)CN(c2c(-c3ccc(F)c(Cl)c3)c(=O)n(-c3cnc4cc(F)ccn34)c(=O)n2CC#N)C1 [Compound I-154] | < 0.01 µM |
| N#CCn1c(N2CC(n3cccn3)C2)c(-c2ccc(F)c(Cl)c2)c(=O)n(-c2cncc(Cl)c2)c1=O [Compound I-080] | < 0.01 µM |
| N#CCn1c(N2CCN(c3ccccc3)C(=O)C2)c(-c2ccc(F)c(Cl)c2)c(=O)n(-c2cncc(Cl)c2)c1=O [Compound I-081] | > 0.1 µM |
| N#CCn1c(N2CC3(C2)CC(F)(F)C3)c(-c2ccc(F)c(Cl)c2)c(=O)n(-c2cc(=O)cc(Br)[nH]2)c1=O [Compound I-222] | > 0.1 µM |
| Cn1cnc(Cn2c(=O)c(Cc3cc(F)c(F)c(F)c3)c(N3CC4(CCOC4)C3)n(CC#N)c2=O)n1 [Compound I-089] | > 0.1 µM |
| N#CCn1c(N2Cc3ccccc3C2)c(-c2cccc(Cl)c2)c(=O)n(C2CCn3cnnc32)c1=O (racemic) [Compound I-121] | > 0.1 µM |
| Cc1cncc(-n2c(=O)c(Cc3cc(F)c(F)c(F)c3)c(Cl)n(C(C)C#N)c2=O)c1 (racemic) [Compound I-046] | > 0.1 µM |
| N#CCn1c(N2CC3(CCOC3)C2)c(-c2ccc(F)c(Cl)c2)c(=O)n(-c2cc(Cl)[nH]c(=O)c2)c1=O [Compound I-187] | 0.01 to 0.1 µM |
| Cc1cc(-n2c(=O)c(-c3ccc(F)c(Cl)c3)c(Cl)n(CC#N)c2=O)c[n+]([O-])c1 [Compound I-277] | > 0.1 µM |
| N#CCn1c(Cl)c(-c2ccc(F)c(Cl)c2)c(=O)n(-c2cnc3ccc(F)cn23)c1=O [Compound I-125] | > 0.1 µM |
| N#CCn1c(N2CCCC2)c(-c2ccc(F)c(Cl)c2)c(=O)n(-c2cncc(Cl)c2)c1=O [Compound I-252] | < 0.01 µM |
